Results: patent publication US7307166B1, “Oxpurine nucleosides and their congeners, and acyl, derivatives thereof, for improvement of hematopoiesis” (Wellstat Therapeutics Corporation, priority 1987, dated 2007)

Tests used:
[1] = test system: bone marrow cells in culture; details: sub-optimal amounts of colony stimulating factors; cited from earlier work
Balb/C female mice [2] = assay: Hematopoietic recovery after cyclophosphamide in mice (spleen weight, blood cell counts); assay type: in vivo, mouse
Balb/C female mice [3] = assay: as above; assay type: in vivo, mouse; remark: listed apart in the source

Substance: polyoxyethylene sorbitan mono-oleate [Tween 80]
- concentration of maximum activity [1]: 10 ng/mL
- spleen weight (Balb/C female mice [2]; Ex 38: day 7 after CP, guanosine 5, acyl derivatives 2.5 μmoles/mouse/day in 0.2% Tween 80 i.p. 6 days, Tween 80 0.2%): No significant difference
- lymphocyte counts (Balb/C female mice [2]; Ex 41: day 7 after CP, Tween 80 0.2% for any period): not affected
- spleen weight (Balb/C female mice [2]; Ex 41: day 7 after CP, Tween 80 0.2% on days 4-6 or 1-6 (not days 1-4), vs saline): elevated
- mean spleen weight (Balb/C female mice [2]; Ex 45: day 7 after CP, Tween 80 0.5%): some increase
- spleen weight (Balb/C female mice [3]; Ex 46: day 7 after CP, Tween 80 0.5% alone vs saline): modest increase
- neutrophil counts (Balb/C female mice [3]; Ex 58: day 7 after CP, 1.0% Tween alone i.p. 6 days, vs saline): significantly different from controls
